Data set [1] concerns infarct size after coronary artery ligation. Particulars: 5 mg kg^-1 i.v. immediately before occlusion, after 24 h of occlusion, rats, cited from earlier work.
The test system of data set [2] is arrhythmias evoked by ligation of left anterior descending coronary artery. As to conditions: cited from earlier work.
Another data set relates to platelet aggregation. Description: Antiplatelet aggregation test in rabbit platelet-rich plasma, synthetic C16:0 PAF-induced (method of Born et al.). The data set is classed as cell-based. As to conditions: platelet count 6×10^5 /μl, C16:0 PAF final 1×10^-8 -3×10^-8 M; for IC50: Oryctolagus cuniculus, read-out: IC50 (concentration necessary to inhibit aggregation by 50%). As for the experimental part: The following antiplatelet aggregation test was performed, using the phomactin A thus obtained.
Blood was drawn from a rabbit heart and immediately mixed with nine times its volume of a 3.8% w/v aqueous solution of sodium citrate. A platelet-rich plasma (PRP) was then obtained as a supernatant by centrifugation of the blood mixture at 150×g for 15 minutes at room temperature. The precipitated fraction remaining from the blood mixture was then centrifuged for a further 15 minutes at 10,000×g to obtain a platelet-poor plasma (PPP) as a supernatant. Appropriate proportions of the PRP and the PPP were mixed to obtain a plasma having a platelet count of 6×10^5 /μl.
Platelet aggregation was determined by the method of Born et al. [Nature, 194, 927-929 (1962)] where an increase in light transmission through the test sample is measured by means of an aggregometer.
The aggregation resulting from the addition of the PAF alone, without the prior addition of the test compound, was taken as 100%.
Instead of the test solution, physiological saline was added and the aggregation at one minutes after the addition of C16 -PAF was used as the control.

The next data set in a line: Solubility. It counts as physicochemical. Particulars: for Solubility in organic solvents: methanol, ethanol, acetone, ethyl acetate, chloroform, dimethyl sulfoxide, benzene and diethyl ether.

Molecules are shown by their SMILES.

Turning to `CC1C(=O)OC2C(O)C34C5CC(C(C)(C)C)C36C(OC(=O)C6O)OC4(C(=O)O5)C12O` (stereo not drawn) [BN-52021], in data set [1] (control 26±2.2%, p<0.05), the infarct size is 17±1.8 % of heart tissue. For the same molecule, the “infarct size (in words)” value in data set [1] (preliminary studies) is recorded as “significantly reduced the infarct size”. Also, the “number of ectopic beats during the 30 min ischemic period (in words)” value in data set [2] (5 mg kg^-1, 15 min before coronary artery occlusion, mongrel dogs) is reported as “significantly reduced the number of ectopic beats”. Besides, the “Number of ectopic beats, 5-10 min of ischemia, mean ± SEM” value in data set [2] (5 mg kg^-1 i.v. bolus 15 min before ligation, 5-10 min, dogs, p < 0.05 (Wilcoxon)) was 10 ± 5.4. Moreover, the “Number of ectopic beats, 10-15 min of ischemia, mean ± SEM” value in data set [2] (5 mg kg^-1 i.v. bolus 15 min before ligation, 10-15 min, dogs, p < 0.05 (Wilcoxon)) is 10 ± 5.3. The “Number of ectopic beats, 15-20 min of ischemia, mean ± SEM” value in data set [2] (5 mg kg^-1 i.v. bolus 15 min before ligation, 15-20 min, dogs, p < 0.05 (Wilcoxon)) was 15 ± 6.3. Also, the “Number of ectopic beats, 20-25 min of ischemia, mean ± SEM” value in data set [2] (5 mg kg^-1 i.v. bolus 15 min before ligation, 20-25 min, dogs, p < 0.05 (Wilcoxon)) is 55 ± 28.6. The “Number of ectopic beats, 25-30 min of ischemia, mean ± SEM” value in data set [2] (5 mg kg^-1 i.v. bolus 15 min before ligation, 25-30 min, dogs, p < 0.05 (Wilcoxon)) is 98 ± 39.0.

As to `CC1=CCCC2(C)OC3CC(C)C(C)(CC1)C1=C3C(O)(OC1)C2O` (stereo not drawn) [Phomactin A, 3,3a-dihydroxy-2,6-(3'-methyl-3'-hexeno)-2,6,7-trimethyl-3a,5,6,7,8,8a-hexanhydrofuro[2,3,4-de]chroman], in the data set on platelet aggregation, the IC50 is 17 µM. For the same molecule, the “inhibition of platelet aggregation” value with platelet aggregation (at a concentration of 10 g/ml (so in the source)) is reported as “about 91.7%”. In addition, in “Solubility”, the “Solubility in organic solvents” value is “Soluble in methanol, ethanol, acetone, ethyl acetate, chloroform, dimethyl sulfoxide, benzene and diethyl ether”; the Solubility in water entry is “insoluble in water”.

Take `CC1=CCCC2(C)OC2C(=O)C2=CC(O)C(C)C(C)(CC1)C2(C)O` (stereo not drawn) [Phomactin B, 13,15-dihydroxy-3,4-epoxy-2-oxo-4,8,11,12,15-pentamethylbicycl[9.3.1]pentadeca-7,14-diene]: the IC50 in the data set on platelet aggregation was 17 µM. Also, in the data set “Solubility”, the “Solubility in organic solvents” value is “Soluble in methanol, ethanol, acetone, ethyl acetate, chloroform, dimethyl sulfoxide, benzene and diethyl ether”; the Solubility in water result is reported as “insoluble in water”.

(Values after US5308867A, “Platelet activating factor antagonists, named "the phomactins", their preparation and use” (Sankyo Company, Limited, priority 1988, dated 1994).)
